In article PMC2832307 (Journal of medicinal chemistry, 2009):
Entries after “also recorded” stand apart in the source; their conditions may differ. Where two headings read alike, the source gives them in different places.

What was measured:
[1] = system: mice; conditions: cited from earlier work
[2] = system: human cytoplasmic A site sequence; conditions: cited from earlier work
[3] = system: premature stop codons; conditions: cited from earlier work
[4] = system: human CFTR-G542X nonsense mutation; conditions: clinical doses, transgenic CF mouse; cited from earlier work
[5] = system: nonsense mutation constructs (p2luc, R3381X, R3X, R245X, G542X, W1282X, Q70X, W402X); assay: In vitro dual luciferase readthrough assay; type: biochemical; conditions: for reduction in overall translation: highest concentration, Renilla luciferase activity ratio, all eight constructs
[6] = system: PCDH15-R3X nonsense mutation; assay: Ex vivo dual luciferase readthrough assay in COS-7 cells; type: cell-based, monkey
[7] = Acute intravenous toxicity; set-up: species or system mice; conditions: male, BALB/C, mouse, in vivo
[8] = system: hair cells of mouse organ of Corti explants; assay: Ototoxicity: hair cell loss in cochlear explants; type: cell-based; conditions: 0.2 mM, basal part

## NC[C@@H]1CC[C@@H](N)[C@@H](O[C@H]2[C@H](O)[C@@H](O[C@H]3O[C@H](CO)[C@@H](O)[C@H](N)[C@H]3O)[C@H](N)C[C@@H]2N)O1 [dibekacin]
[1]; acute lethal toxicity
  LD50: 71 mg/kg

## NC[C@H]1O[C@@H](O[C@@H]2[C@@H](O)[C@H](N)C[C@H](N)[C@H]2O[C@H]2O[C@H](CO)[C@@H](O)[C@H](O)[C@H]2N)[C@H](O)[C@@H]1O [compound 1]
[2]
  fold weaker affinity than paromomycin: about 100 fold

## NC[C@H]1O[C@H](O[C@H]2[C@H](O)[C@@H](O)[C@H](N)C[C@@H]2N)[C@H](N)[C@@H](O)[C@@H]1O [neamine]
[1]; acute lethal toxicity
  LD50: 125 mg/kg

## NCC[C@H](O)C(=O)N[C@@H]1C[C@H](N)[C@@H](O[C@H]2O[C@H](CN)[C@@H](O)[C@H](O)[C@H]2O)[C@H](O)[C@H]1O[C@H]1O[C@H](CO)[C@@H](O)[C@H](N)[C@H]1O [amikacin]
[3]
  readthrough potency, fold lower than gentamicin: over 10 fold
[1]; acute intravenous toxicity in mice
  LD50: 300 mg/kg
[4]
  suppression of CFTR-G542X nonsense mutation: highly effective suppression

## butirosin
[1]; acute lethal toxicity
  LD50: 520 mg/kg

## NCC[C@H](O)C(=O)N[C@@H]1C[C@H](N)[C@@H](O[C@H]2O[C@H](CO)[C@@H](O)[C@H](O)[C@H]2N)[C@H](O[C@@H]2O[C@H](CN)[C@@H](O)[C@H]2O)[C@H]1O [compound 2, 5-O-(5-Amino-5-deoxy-β-D-ribofuranosyl)-1-N-[(S)-4-amino-2-hydroxy-butanoyl]paromamine]
[5]
  reduction in overall translation: approximately 50%
[5]; in vitro, eight constructs
  level of readthrough (rank among four aminoglycosides): induced the highest level of readthrough
[6]; COS-7, vs compound 1
  fold more effective (maximal suppression) than compound 1: 1.9 fold
[6]; COS-7, vs gentamicin
  fold more effective (maximal suppression) than gentamicin: 2.8 fold
[6]; COS-7, vs paromomycin
  fold more effective (maximal suppression) than paromomycin: 3.2 fold

## NC[C@H]1O[C@H](O[C@H]2[C@H](O)[C@@H](O[C@H]3O[C@H](CO)[C@@H](O)[C@H](N)[C@H]3O)[C@H](N)C[C@@H]2N)[C@H](N)C[C@@H]1O [tobramycin]
[3]
  suppression activity: does not have suppression activity

## NCCC(O)C(=O)NC1CC(N)C(OC2OC(CN)C(O)C(O)C2N)C(O)C1O (stereo not shown) [N-1-AHB-neamine]
[1]; acute lethal toxicity
  LD50: 260 mg/kg

## kanamycin A
[3]
  readthrough activity: does not show measurable readthrough activity

## NC[C@@H]1O[C@H](O[C@H]2[C@@H](O)[C@H](O[C@@H]3[C@@H](O)[C@H](N)C[C@H](N)[C@H]3O[C@H]3O[C@H](CO)[C@@H](O)[C@H](O)[C@H]3N)O[C@@H]2CO)[C@H](N)[C@@H](O)[C@@H]1O [Paromomycin, paromomycin]
[5]
  reduction in overall translation: approximately 40%

## NC[C@H]1O[C@H](O[C@H]2[C@H](O[C@@H]3O[C@H](CO)[C@@H](O)[C@H]3O)[C@@H](O)[C@H](N)C[C@@H]2N)[C@H](N)[C@@H](O)[C@@H]1O [ribostamycin]
[1]; acute lethal toxicity
  LD50: 260 mg/kg

## CNC(C)C1CCC(N)C(OC2C(N)CC(N)C(OC3OCC(C)(O)C(NC)C3O)C2O)O1 (stereo not shown) [Gentamicin, gentamicin]
[7]
  LD50 at 4 days: 60 mg/kg
[5]
  reduction in overall translation: approximately 50%
[6]; COS-7 cells
  maximal suppression level: 1.86%
[8]
  hair cell loss in cochlear explants: hair cell loss was almost complete; also recorded: cell loss is almost complete

## NCC[C@H](O)C(=O)N[C@@H]1C[C@H](N)[C@@H](O[C@H]2O[C@H](CN)CC[C@H]2N)[C@H](O)[C@H]1O[C@H]1O[C@H](CO)[C@@H](O)[C@H](N)[C@H]1O [arbekacin]
[1]; acute lethal toxicity
  LD50: 118 mg/kg
